Experiments:
physchem [1] = test: physchem
Description: Dissociation constant, basic pKa of the compound by UV spectrophotometry

physchem [2] = test: physchem; remark: listed apart in the source
Description: Dissociation constant, acidic pKa of the compound by UV spectrophotometry

Row | Compound | pKa (physchem [1]) | pKa (physchem [2])
1 | O=S(=O)(O)CCc1ccc(Nc2c3ccccc3nc3ccccc23)cc1 | 7.77 | 
2 | CS(=O)(=O)Nc1cccc(Nc2c3ccccc3nc3ccccc23)c1 | 6.85 | 
3 | Cc1cccc2c(Nc3ccc(NS(C)(=O)=O)cc3)c3ccccc3nc12 | 7.15 | 
4 | CC(=O)Nc1ccc2c(Nc3ccc(C(=O)O)cc3)c3ccccc3nc2c1 | 7.42 | 
5 | N#Cc1ccc(Cc2c3ccccc3nc3ccccc23)cc1 | 5.93 | 
6 | COc1cc(C(=O)O)ccc1Nc1c2ccccc2nc2ccccc12 | 7.41 | 
7 | Nc1ccc2c(Nc3ccc(C(=O)O)cc3)c3ccccc3nc2c1 | 8.9 | 
8 | CS(=O)(=O)Nc1ccc(Nc2cc(N=[N+]=[N-])nc3ccccc23)cc1 | 7 | 
9 | CS(=O)(=O)Nc1ccc(Nc2c3ccccc3nc3c(C(N)=O)cccc23)cc1 | 6.12 | 
10 | O=C(O)c1ccccc1Nc1c2ccccc2nc2ccccc12 | 7.28 | 
11 | O=C(O)Cc1cccc(Nc2c3ccccc3nc3ccccc23)c1 | 7.82 | 
12 | O=C(O)Cc1ccccc1Nc1c2ccccc2nc2ccccc12 | 8.12 | 
13 | NS(=O)(=O)CCc1ccc(Nc2c3ccccc3nc3ccccc23)cc1 | 7.43 | 
14 | CC(=O)c1ccc(Cc2c3ccccc3nc3ccccc23)cc1 | 6.12 | 
15 | Brc1ccc(Cc2c3ccccc3nc3ccccc23)cc1 | 7 | 
16 | Clc1ccc(Cc2c3ccccc3nc3ccccc23)cc1 | 7.06 | 

Row | Compound | pKa (physchem [1]) | pKa (physchem [2])
17 | O=S(=O)(Nc1ccc(Cc2c3ccccc3nc3ccccc23)cc1)c1ccccc1 | 7.09 | 
18 | c1ccc(Cc2c3ccccc3nc3ccccc23)cc1 | 7.46 | 
19 | CC(=O)Nc1ccc(Cc2c3ccccc3nc3ccccc23)cc1 | 7.51 | 
20 | COC(=O)Nc1ccc(Cc2c3ccccc3nc3ccccc23)cc1 | 7.64 | 
21 | Cc1ccc(Cc2c3ccccc3nc3ccccc23)cc1 | 7.72 | 
22 | CNC(=O)Nc1ccc(Cc2c3ccccc3nc3ccccc23)cc1 | 7.77 | 
23 | COc1ccc(Cc2c3ccccc3nc3ccccc23)cc1 | 7.94 | 
24 | Nc1ccc(Cc2c3ccccc3nc3ccccc23)cc1 | 8.36 | 
25 | COc1cc(NS(C)(=O)=O)ccc1Cc1c2ccccc2nc2cc([N+](=O)[O-])ccc12 | 5.72 | 
26 | COc1cc(NS(C)(=O)=O)ccc1Cc1c2ccc([N+](=O)[O-])cc2nc2cc([N+](=O)[O-])ccc12 | 3.82 | 
27 | COc1cc(NS(C)(=O)=O)ccc1Cc1c2c(nc3ccccc13)CC(=N)C=C2 | 5.53 | 
28 | COc1cc(NS(C)(=O)=O)ccc1Cc1c2c(nc3ccccc13)C(=N)CC=C2 | 6.09 | 
29 | CS(=O)(=O)Nc1ccc(Nc2c3ccccc3nc3cc(I)ccc23)cc1 | 6.52 | 
30 | CN(c1ccc(Nc2c3ccccc3nc3ccccc23)cc1)S(C)(=O)=O | 6.95 | 
31 | CC(=O)Nc1ccc2c(Nc3ccc(NS(C)(=O)=O)cc3)c3ccccc3nc2c1 | 7.34 | 
32 | COc1cc(NS(C)(=O)=O)ccc1Nc1c2ccccc2nc2ccccc12 [AMSACRINE] | 7.43 | 

Second part, the molecule after the results:

Row | pKa (physchem [1]) | pKa (physchem [2]) | Compound
33 | 7.64 |  | O=S(=O)(O)Cc1ccc(Nc2c3ccccc3nc3ccccc23)cc1
34 | 8.19 |  | O=C(O)COc1ccc(Nc2c3ccccc3nc3ccccc23)cc1
35 | 7.62 |  | O=C(O)c1cccc(Nc2c3ccccc3nc3ccccc23)c1
36 | 7.17 | 4.2 | O=C(O)c1ccc(Nc2c3ccccc3nc3ccccc23)cc1
37 | 7.17 |  | O=C(O)/C=C/c1ccc(Nc2c3ccccc3nc3ccccc23)cc1
38 | 7.63 |  | NC(=O)CCc1ccc(Nc2c3ccccc3nc3ccccc23)cc1
39 | 7.91 |  | O=C(O)CCc1ccc(Nc2c3ccccc3nc3ccccc23)cc1
40 | 6.47 |  | NC(=O)c1ccc(Nc2c3ccccc3nc3ccccc23)cc1
41 | 6.11 |  | NS(=O)(=O)c1ccc(Nc2c3ccccc3nc3ccccc23)cc1
42 | 5.58 |  | O=[N+]([O-])c1ccc(Nc2c3ccccc3nc3ccccc23)cc1
43 | 7.92 |  | O=C(O)Cc1ccc(Nc2c3ccccc3nc3ccccc23)cc1
44 | 7.43 |  | NC(=O)Cc1ccc(Nc2c3ccccc3nc3ccccc23)cc1
45 | 7.05 |  | NS(=O)(=O)Cc1ccc(Nc2c3ccccc3nc3ccccc23)cc1
46 | 6.87 |  | O=S(=O)(O)c1ccc(Nc2c3ccccc3nc3ccccc23)cc1
47 | 6.21 |  | COC(=O)c1ccc(Nc2c3ccccc3nc3ccccc23)cc1

Reference: ChEMBL document CHEMBL3271983, “Potential antitumor agents. 26. Anionic congeners of the 9-anilinoacridines” (J Med Chem, 1978)
